Test results as given in patent US6159940A, “Method for modulating hemopoiesis” (Immunotech Developments Inc., priority 1999, dated 2000).

Columns and labels:
Antibody Forming Cells = Antibody Forming Cells count (Jerne) in spleen after immunization with sheep erythrocytes; format: in vivo, (CBA×C57BL)F1 mice
Method: (§1) Females and male (CBA×C57BL)F1 mice, aged about 2.5 months weighing about 20 g, were irradiated with gamma-rays using a "Luch-1" apparatus. Immunological activity was assessed according to Jerne (Antibody Forming Cells count--AFC). T-cell count in spleen was determined by the method of spontaneous rosette formation with sheep erythrocytes (E-FRC). The peptide was injected intramuscularly.
(§2) Mice were irradiated in a dose of 2 Gy, the peptide was injected in the dose of 10 μg/kg according to the following scheme (to determine T-cell count by the method of spontaneous rosette formation): 1 time--an hour after the irradiation; 2 times--an hour, and a day after irradiation; 3 times--an hour, a day, and two days after the irradiation; 4 times--an hour, a day, two days and three days after the irradiation. The intact mice recieved the peptide 3 or 4 times. The control group (2 Gy) recieved injections of physiological solution according to the same schedule. On completion of the treatment course, 10 mice from each group were immunized with sheep erythrocytes (SE) and 4-5 days later AFC counts were determined in their spleens. The rest of the mice were used to find T-cell count by the method of spontaneous rosette formation. The state of the organs of immune system (spleen and thymus) in mice with radiation immunodeficiency against the background of H-Ile-Glu-Trp-OH treatment was also listed by nucleated cell counts in thymus and spleen per mg of organ weight. AFC/mg Spleen weight is presented as an average of two experiments.

[1] = test system: karyocytes in spleen and thymus; assay: Nucleated cell counts in thymus and spleen per mg of organ weight, radiation immunodeficiency; format: in vivo, (CBA×C57BL)F1 mice; details: 2 Gy
Method: as §1, §2

CFU-S = assay: Endogenous spleen colonies in irradiated mice (6 Gy); format: in vivo; details: 10 μg/kg IM, Day 9
Method: Test mice were irradiated in the dose of 6 Gy Beginning from the first hour after the irradiation, the mice received once daily IM injections of 10 μg/kg H-Ile-Glu-Trp-OH. Injections were made 1, 2, 3, or 4 times. The mice were killed on Day 9, spleens were taken out and fixed in Buene's solution, the colonies were counted. 110 mice were used in the test.

[2] = test system: lymphocyte subpopulations in peripheral blood; assay: Clinical study: hemogram and immune phenotyping in patients with chronic lymphoid leukosis; format: in vivo
Description: The study was continued in groups of patients with immune cytopenias, multiple myeloma, chronic lymphoid leukosis, lymphocytic lymphomas, lymphosarcomas (55 patients). Special attention was paid to the group of patients with P-cellular lymphoid leukosis. The peculiarity of the leukemic B-lymphocyte clone and its relatively vast representation in the peripheral blood of patients with a pronounced secondary immune deficiency makes B-cellular chronic Lymphoid leukosis a unique model for clinical studies of the effect of an immunomodulator.
Immune phenotyping is the most reliable method to determine the changes of ratios of immunocompetent cells in the peripheral blood and lymphocyte-containing organs. The method allows detection of subpopulations by the presence of cellular differentiating antigen structures on lymphocyte surface. For more trustworthy results, some patients were examined using a flow-type cytoflourimeter and monoclonal antibodies. Taking into account the contingent of the patients, the main surface structures to be examined were the following: CD45++CD14-, CD45+CD14-, CD45+CD14+, CD3+CD19-, CD3-CD19+, CD4+CD8-, CD4-CD8+, CD3+HLA- DR+, CD3+CD16,56+, CD34+, CDS+.
The dynamics of CD4+CD8- and CD4-CD8+ (T-helpers and T-suppressers) and the dynamics of other necessary CD-markers were determined in the course of treatment with H-Ile-Glu-Trp-OH. A special attention was paid to CD45++CD14- and CD45+CD14 as they characterize the proportion between normal and leukemic lymphocytes in chronic lymphoid leukosis and illustrate the influence of the immunoactive peptide on the proportion. These peculiarities connected with the characteristics of the disease allow investigation of the molecular mechanism of its genesis. In the case of an immune cytopenia most important are the quantitative ratios of CD45++CD14- and CD45+CD14- to CD4-CD8+, their reliable values can be obtained with the help of a cytofluorimeter.
One ml daily, intranasally, once or twice in divided doses, for 5 days. The course was repeated after a 3-week interval. To those patients who received a cytostatic mono- or polychemotherapy, H-Ile-Glu-Trp-OH was administered from the first day of the break in the cytostatic treatment.

[3] = Local irritating effect, guinea pigs; format: in vivo
Description: The local irritating effect of H-Ile-Glu-Trp-OH was studied in 20 guinea pigs and 5 rabbits.

[4] = Patient 0., * % of cells in mixed population of CD45++CD14- and CD45+CD14-
[5] = Patient S., * % of cells in the CD45+CD14- subpopulation

With H-Ile-Glu-Trp-OH the “AFC/mg Spleen” value (Antibody Forming Cells; 2 Gy, 10 μg/kg i.m., 3 Injection) was 152.4 ± 4.1, the “AFC/mg Spleen” value (Antibody Forming Cells; 2 Gy, 10 μg/kg i.m., 4 Injection) was 158.1 ± 7.1 and the “AFC/mg Spleen” value (Antibody Forming Cells; intact mice, 3 Injections) was 621.1 ± 14.2. For the same substance, the “AFC/mg Spleen” value (Antibody Forming Cells; intact mice, 4 Injections) was 676.1 ± 47.5, the AFC increase (Antibody Forming Cells; intact mice, humoral response to SE) was 5 times and the “number of antibody forming cells” value (Antibody Forming Cells; irradiated mice, 3 and 4 injections) was “practically doubled”. For the same substance, the “Karyocyte Count, Spleen” value ([1]; 1 Injection) was 1120 ± 73 10^3 /mg, the “Karyocyte Count, Thymus” value ([1]; 1 Injection) was 1860 ± 200 10^3 /mg and the “Karyocyte Count, Spleen” value ([1]; 2 Injection) was 890 ± 80 10^3 /mg. For the same substance, the “Karyocyte Count, Thymus” value ([1]; 2 Injection) was 1840 ± 380 10^3 /mg, the “Karyocyte Count, Spleen” value ([1]; 3 Injection) was 980 ± 80 10^3 /mg and the “Karyocyte Count, Thymus” value ([1]; 3 Injection) was 2590 ± 400 10^3 /mg. For the same substance, the “Karyocyte Count, Spleen” value ([1]; 4 Injection) was 1160 ± 100 10^3 /mg, the “Karyocyte Count, Thymus” value ([1]; 4 Injection) was 2480 ± 280 10^3 /mg and the “Colony (endogenous spleen colonies)” value (CFU-S; 1 times) was 3.3 ± 0.6. For the same substance, the “Colony (endogenous spleen colonies)” value (CFU-S; 2 times) was 4.4 ± 0.5, the “Colony (endogenous spleen colonies)” value (CFU-S; 3 times) was 5.0 ± 0.7 and the “Colony (endogenous spleen colonies)” value (CFU-S; 4 times) was 5.2 ± 0.8. The “% of Cells after H-Ile-Glu-Trp-OH Treatment, CD45++CD14- lymphocytes” value (“% of Cells … CD45++CD14- lymphocytes” below) ([2]; Patient 0.) was 28%, the “% of Cells after H-Ile-Glu-Trp-OH Treatment, CD45+CD14+ monocytes” value (shortened to “% of Cells … CD45+CD14+ monocytes”) ([2]; Patient 0.) was 3.6% and the “% of Cells after H-Ile-Glu-Trp-OH Treatment, CD45+CD14- granulocytes” value (from here on “% of Cells … CD45+CD14- granulocytes”) ([2]; Patient 0.) was 63.8%. For the same substance, the “Absolute Count after treatment, CD45++CD14- lymphocytes” value (“Absolute Count after treatment” below) ([2]; Patient 0.) was 5.8 bln/l, the “number of cells with CD45++CD14- markers after treatment” value ([2]; Patient 0.) was “grew three times” and the “Lymphocytes absolute after treatment course” value ([2]; Patient 0. (before: 11.2)) was 15.4 blnd. For the same substance, the “leukocytes after treatment course” value ([2]; Patient 0. (before: 17.3)) was 20.8 blnd, the “Lymphocytes after treatment course” value ([2]; Patient 0. (before: 65)) was 74% and the “% of Cells after H-Ile-Glu-Trp-OH Treatment, CD4+CD8- T-helpers” value (from here on “% of Cells … CD4+CD8- T-helpers”) [2, 4] was 8.2%. The “% of Cells after H-Ile-Glu-Trp-OH Treatment, CD4-CD8+ T-suppressers” value (from here on “% of Cells … CD4-CD8+ T-suppressers”) [2, 4] was 8.1%, the “CD4+/CD8+ ratio after H-Ile-Glu-Trp-OH Treatment” value (from here on “CD4+/CD8+ ratio”) ([2]; Patient 0., * mixed population of CD45++CD14- and CD45+CD14-) was 1.0 and the “% of Cells … CD45++CD14- lymphocytes” value ([2]; Patient B.) was 9.5%. For the same substance, the “% of Cells … CD45+CD14+ monocytes” value ([2]; Patient B.) was 2.1%, the “% of Cells … CD45+CD14- granulocytes” value ([2]; Patient B.) was 86.4% and the “Absolute Count after treatment” value ([2]; Patient B.) was 2.52 bln/l. The “Lymphocytes absolute after treatment” value ([2]; Patient B. (before: 18.7)) was 21.8 bln/1, the leukocytes after treatment ([2]; Patient B. (before: 23,0)) was 26.6 bin/1 and the Lymphocytes after treatment ([2]; Patient B. (before: 85)) was 82%. For the same substance, the “% of Cells after H-Ile-Glu-Trp-OH Treatment, CD3+CD19- T-lymphocytes” value (from here on “% of Cells … CD3+CD19- T-lymphocytes”) ([2]; Patient B., marked *) was 10.6%, the “% of Cells after H-Ile-Glu-Trp-OH Treatment, CD3+HLA-DR+ activated T-lymphoc.” value (“% of Cells … CD3+HLA-DR+ activated T-lymphoc.” below) ([2]; Patient B., marked *) was 1.31% and the “% of Cells after H-Ile-Glu-Trp-OH Treatment, CD3-CD19+ B-lymphocytes” value (“% of Cells … CD3-CD19+ B-lymphocytes” for short) ([2]; Patient B., marked *) was 85.3%. The “% of Cells … CD4+CD8- T-helpers” value ([2]; Patient B., marked *) was 6.4%, the “% of Cells … CD4-CD8+ T-suppressers” value ([2]; Patient B., marked *) was 3.8% and the “CD4+/CD8+ ratio” value ([2]; Patient B., marked *) was 1.7. For the same substance, the “% of Cells … CD3+CD19- T-lymphocytes” value ([2]; Patient M.) was 35.6%, the “% of Cells … CD3-CD19+ B-lymphocytes” value ([2]; Patient M.) was 61.2% and the “% of Cells … CD4+CD8- T-helpers” value ([2]; Patient M.) was 11.6%. The “% of Cells … CD4-CD8+ T-suppressers” value ([2]; Patient M.) was 30.6%, the “% of Cells … CD45++CD14- lymphocytes” value ([2]; Patient M.) was 43.2% and the “% of Cells … CD45+CD14+ monocytes” value ([2]; Patient M.) was 4.5%. The “% of Cells … CD45+CD14- granulocytes” value ([2]; Patient M.) was 47.7%, the “Absolute Count after treatment” value ([2]; Patient M.) was 3.715 bln/l and the “CD4+/CD8+ ratio” value ([2]; Patient M.) was 0.4. For the same substance, the “Lymphocytes absolute after treatment course” value ([2]; Patient M. (before: 3.24)) was 3.62 bln/1, the “leukocytes after treatment course” value ([2]; Patient M. (before: 7.9)) was 8.6 blnA and the “Lymphocytes after treatment course” value ([2]; Patient M. (before: 41)) was 42%. For the same substance, the “% of Cells … CD3+CD19- T-lymphocytes” value ([2]; Patient S.) was 52.0%, the “% of Cells … CD3+HLA-DR+ activated T-lymphoc.” value ([2]; Patient S.) was 16.0% and the “% of Cells … CD3-CD19+ B-lymphocytes” value ([2]; Patient S.) was 40.0%. The “% of Cells … CD4+CD8- T-helpers” value ([2]; Patient S.) was 27.1%, the “% of Cells … CD4-CD8+ T-suppressers” value ([2]; Patient S.) was 36.5% and the “% of Cells … CD45++CD14- lymphocytes” value ([2]; Patient S.) was 13.5%. The “% of Cells … CD45+CD14+ monocytes” value ([2]; Patient S.) was 0.8%, the “% of Cells … CD45+CD14- granulocytes” value ([2]; Patient S.) was 78.0% and the “Absolute Count after treatment” value ([2]; Patient S.) was 9.112 bln/l. The “CD4+/CD8+ ratio” value ([2]; Patient S.) was 0.7, the “Lymphocytes absolute after treatment course” value ([2]; Patient S. (before: 48.04)) was 58.06 bln/1 and the “leukocytes after treatment course” value ([2]; Patient S. (before: 57.2)) was 67.5 bin/1. For the same substance, the “Lymphocytes after treatment course” value ([2]; Patient S. (before: 84)) was 86%, the “count of lymphocytes belonging to the population of conventionally normal lymphocytes” value ([2]; Patient S., after the treatment) was “doubled” and the “% of Cells … CD3+CD19- T-lymphocytes” value [2, 5] was 2.6%. The “% of Cells … CD3+HLA-DR+ activated T-lymphoc.” value [2, 5] was 0.5%, the “% of Cells … CD3-CD19+ B-lymphocytes” value [2, 5] was 96.9% and the “% of Cells … CD4+CD8- T-helpers” value [2, 5] was 1.6%. For the same substance, the “% of Cells … CD4-CD8+ T-suppressers” value [2, 5] was 1.9%, the “CD4+/CD8+ ratio” value ([2]; Patient S., * in the CD45+CD14- subpopulation) was 0.5 and the local irritating effect [3] was “no local irritating effect”.
